The source made the active and inactive calls. The calls are words filed in the database; no cut-off is given here.

For series [1], the system named is Cell membrane. Briefly: Induction of membrane disruption in methicillin resistant Staphylococcus aureus 20 at 16 ug/ml incubated for 4 hrs by DAPI/PI staining based laser confocal microscopic analysis. The conditions noted are these: dose 16.0 µg/ml.
Series [2] deals with Cell membrane. Briefly: Induction of membrane depolarization in methicillin resistant Staphylococcus aureus 20 assessed as fold increase in fluorescence intensity at 32 times MIC measured at 2 mins interval over 20 mins by DiSC3(5) staining based assay relative to control. Type of series: cell membranes.
The subject of series [3] is Staphylococcus aureus. Briefly: Antibacterial activity against methicillin resistant Staphylococcus aureus 20 incubated for 16 to 18 hrs in presence of 2 to 64 ug/ml cardiolipin by checkerboard broth dilution method. Type of series: functional, organism-based. The conditions noted are these: time 16-18 hrs. In general terms: Broth dilution looks for growth in wells or tubes with falling amounts of substance.

Series [4] has as its system Staphylococcus aureus. Briefly: Antibacterial activity against methicillin resistant Staphylococcus aureus 20 incubated for 16 to 18 hrs in presence of 2 to 64 ug/ml phosphatidylethanolamine by checkerboard broth dilution method. It counts as functional, organism-based. The conditions noted are these: time 16-18 hrs.
The subject of series [5] is Staphylococcus aureus. The series can be described thus: Antibacterial activity against methicillin resistant Staphylococcus aureus 20 incubated for 16 to 18 hrs in presence of 2 to 64 ug/ml peptidoglycan by checkerboard broth dilution method. Type of series: functional, organism-based. The conditions noted are these: time 16-18 hrs.
Series [6] concerns Staphylococcus aureus. The series can be described thus: Downregulation of srtA gene expression in methicillin resistant Staphylococcus aureus N315 at 4 ug/ml incubated for 4 hrs by RNA-sequencing analysis. The conditions noted are these: dose 4.0 µg/ml. Type of series: functional.
A short description of series [7]: Toxicity in Kunming mouse assessed as effect on survival at 5 to 80 mg/kg, sc measured after 24 hrs. It counts as organism-based. The conditions noted are these: in vivo, dose 5-80 mg/kg.
Series [8] can be described thus: Toxicity in Kunming mouse assessed as skin abnormalities at 20 mg/kg, sc measured after 24 hrs. It counts as organism-based. The conditions noted are these: in vivo.
Series [9] concerns Staphylococcus aureus. The series can be described thus: Antibacterial activity against methicillin resistant Staphylococcus aureus 20 infected in Kunming mouse skin abscess model assessed as reduction in bacterial load at 5 mg/kg, sc measured after 2 hrs. Further details: scale not given: the % may be the effect or the level left. It counts as functional.

Regarding `C=CCc1cc(-c2ccc(OCCC[N+](C)(C)CC(=O)NCCCC)c(CC=C)c2)c2oc(-c3c(Cl)cccc3Cl)nc2c1.[Br-]`, the outcome in series [1], in [4], in [5] and in [6] was Active. In addition, the fold change (FC) in series [2] amounted to 8. Further, the result in series [3] was inactive. Further, the Activity result in series [7] is given as “Non-Toxic”; in [8], “Non-Toxic”; in [9], 96.54%.
